Test results published in US8709747B2, “Biphotonic photosensitizers, nanoparticles containing the same and their use as drugs” (Centre National de la Recherche Scientifique, priority 2009, dated 2014).
Values belong to the molecule of their own block, whether it stands above or below them.

How the values were obtained:
[1] = Two-photon absorption cross section; type: physicochemical; settings: for two-photon absorption cross section: at 720 nm; for λmax^TPA / σ2^max: table titled in ethanol
[2] = Photophysical properties (absorption, emission, fluorescence) in solution or dispersion; type: physicochemical; settings: for Φ / εmax / λmax^abs / λmax^em / quantum yield for fluorescence: in ethanol; for quantum yield for fluorescence: orange emission; for Φf (fluorescence quantum yield): relative to quinine in 0.5 M H2SO4
[3] = Quantum yield for singlet oxygen generation; type: physicochemical; settings: in toluene
[4] = spectral range of interest; Drobizhev et al.; cited from earlier work

two-photon absorption cross section [1]: 1530 GM
λmax^TPA [1]: 730 nm
σ2^max [1]: 1530 GM
Φ [2]: 0.33
εmax [2]: 0.98 10^5 M^−1cm^−1
λmax^abs [2]: 434 nm
λmax^em [2]: 575 nm
quantum yield for fluorescence [2]: 65%
quantum yield for singulet oxygen generation [3]: 22%
Compound: CCN(CCO)c1ccc(/C=C/c2ccc(C#Cc3ccc4c(c3)C(CCOCCOCCOC)(CCOCCOCCOC)c3cc(C#Cc5ccc(/C=C/c6ccc(N(CC)CCO)cc6)s5)ccc3-4)s2)cc1 [Photosensitizer 6b]

two-photon absorption cross section [1]: 1340 GM
λmax^TPA [1]: 730 nm
σ2^max [1]: 1204 GM
Stokes shift ([2]; AcOEt): 4605 cm⁻¹
knr (non-radiative decay rate) ([2]; AcOEt): 0.34 10^9 s^−1
kr (radiative decay rate) ([2]; AcOEt): 0.36 10^9 s^−1
r (fluorescence anisotropy) ([2]; AcOEt): 0.12
λabs ([2]; AcOEt): 435 nm
λem ([2]; AcOEt): 544 nm
τ ([2]; AcOEt): 1.42 ns
τo (radiative lifetime) ([2]; AcOEt): 2.77 ns
Φf (fluorescence quantum yield) ([2]; AcOEt): 0.51
Stokes shift ([2]; Acetone): 5950 cm⁻¹
knr (non-radiative decay rate) ([2]; Acetone): 0.89 10^9 s^−1
kr (radiative decay rate) ([2]; Acetone): 0.25 10^9 s^−1
r (fluorescence anisotropy) ([2]; Acetone): 0.13
λabs ([2]; Acetone): 437.5 nm
λem ([2]; Acetone): 591.5 nm
τ ([2]; Acetone): 0.88 ns
τo (radiative lifetime) ([2]; Acetone): 4.02 ns
Φf (fluorescence quantum yield) ([2]; Acetone): 0.22
Stokes shift ([2]; Bu2O): 2700 cm⁻¹
knr (non-radiative decay rate) ([2]; Bu2O): 0.45 10^9 s^−1
kr (radiative decay rate) ([2]; Bu2O): 0.56 10^9 s^−1
r (fluorescence anisotropy) ([2]; Bu2O): 0.19
λabs ([2]; Bu2O): 433.5 nm
λem ([2]; Bu2O): 491 nm
τ ([2]; Bu2O): 0.99 ns
τo (radiative lifetime) ([2]; Bu2O): 1.79 ns
Φf (fluorescence quantum yield) ([2]; Bu2O): 0.55
Stokes shift ([2]; CH3CN): 6355 cm⁻¹
knr (non-radiative decay rate) ([2]; CH3CN): 0.92 10^9 s^−1
kr (radiative decay rate) ([2]; CH3CN): 0.05 10^9 s^−1
r (fluorescence anisotropy) ([2]; CH3CN): 0.21
λabs ([2]; CH3CN): 436.5 nm
λem ([2]; CH3CN): 604 nm
τ ([2]; CH3CN): 1.03 ns
τo (radiative lifetime) ([2]; CH3CN): 19.99 ns
Φf (fluorescence quantum yield) ([2]; CH3CN): 0.052
Stokes shift ([2]; CHCl3): 4035 cm⁻¹
knr (non-radiative decay rate) ([2]; CHCl3): 0.43 10^9 s^−1
kr (radiative decay rate) ([2]; CHCl3): 0.39 10^9 s^−1
r (fluorescence anisotropy) ([2]; CHCl3): 0.15
λabs ([2]; CHCl3): 431.5 nm
λem ([2]; CHCl3): 522.5 nm
τ ([2]; CHCl3): 1.22 ns
τo (radiative lifetime) ([2]; CHCl3): 2.54 ns
Φf (fluorescence quantum yield) ([2]; CHCl3): 0.48
Stokes shift ([2]; DCM): 4870 cm⁻¹
knr (non-radiative decay rate) ([2]; DCM): 0.27 10^9 s^−1
kr (radiative decay rate) ([2]; DCM): 0.42 10^9 s^−1
r (fluorescence anisotropy) ([2]; DCM): 0.10
λabs ([2]; DCM): 433.5 nm
λem ([2]; DCM): 549.5 nm
τ ([2]; DCM): 1.43 ns
τo (radiative lifetime) ([2]; DCM): 2.35 ns
Φf (fluorescence quantum yield) ([2]; DCM): 0.61
Stokes shift ([2]; DMSO): 6090 cm⁻¹
knr (non-radiative decay rate) ([2]; DMSO): 1.94 10^9 s^−1
kr (radiative decay rate) ([2]; DMSO): 0.10 10^9 s^−1
r (fluorescence anisotropy) ([2]; DMSO): 0.28
λabs ([2]; DMSO): 448.5 nm
λem ([2]; DMSO): 617 nm
τ ([2]; DMSO): 0.49 ns
τo (radiative lifetime) ([2]; DMSO): 9.7 ns
Φf (fluorescence quantum yield) ([2]; DMSO): 0.051
Stokes shift ([2]; THF): 4865 cm⁻¹
knr (non-radiative decay rate) ([2]; THF): 0.32 10^9 s^−1
kr (radiative decay rate) ([2]; THF): 0.34 10^9 s^−1
r (fluorescence anisotropy) ([2]; THF): 0.12
λabs ([2]; THF): 437 nm
λem ([2]; THF): 555 nm
τ ([2]; THF): 1.51 ns
τo (radiative lifetime) ([2]; THF): 2.93 ns
Φf (fluorescence quantum yield) ([2]; THF): 0.51
Stokes shift ([2]; Toluene): 2650 cm⁻¹
knr (non-radiative decay rate) ([2]; Toluene): 0.56 10^9 s^−1
kr (radiative decay rate) ([2]; Toluene): 0.52 10^9 s^−1
r (fluorescence anisotropy) ([2]; Toluene): 0.16
λabs ([2]; Toluene): 436 nm
λem ([2]; Toluene): 493 nm
τ ([2]; Toluene): 0.93 ns
τo (radiative lifetime) ([2]; Toluene): 1.94 ns
Φf (fluorescence quantum yield) ([2]; Toluene): 0.48
Φ [2]: 0.65
εmax [2]: 1.04 10^5 M^−1cm^−1
λmax^abs [2]: 432 nm
λmax^em [2]: 561 nm
quantum yield for fluorescence [2]: 65%
quantum yield for singulet oxygen generation [3]: 22%
Compound: CCCCC1(CCCC)c2cc(C#Cc3ccc(/C=C/c4ccc(N(CC)CCO)cc4)s3)ccc2-c2ccc(C#Cc3ccc(/C=C/c4ccc(N(CC)CCO)cc4)s3)cc21 [Photosensitizer 6a]

Compound: C1=Cc2nc1c(-c1ccccc1)c1ccc([nH]1)c(-c1ccccc1)c1nc(c(-c3ccccc3)c3ccc([nH]3)c2-c2ccccc2)C=C1 [tetraphenylporphine]
two-photon absorption (TPA) cross-section [4]: 15 GM
